What was measured:
HsGSK3β = HsGSK3β (Homo sapiens, UniProt P49841); assay: Radiometric Flashplate potency assay, HsGSK3β; format: biochemical; settings: for ratio HsGSK3β/TbGSK3: ratio of IC50 values
Experimental: (§1) For compound potency determinations, a radiometric 96-well Flashplate assay (PerkinElmer) was adopted. Compounds were solubilized in DMSO at a top concentration of 3 mM and serially diluted to achieve 10-point titration of final assay concentrations from 30 μM to 0.3 nM with a final DMSO concentration of 1% (v/v). The reaction mixtures contained 1 μM biotinylated GSP2 substrate, 1 μM ATP, 3.7 KBq/well [γ-33P]-ATP and 2.5 nM TbGSK3 in the TbGSK3 kinase assay buffer. GSK3 inhibitors were screened for selectivity assessment also against HsGSK3β. For HsGSK3 assay, the reaction mixes contained 1 μM biotinylated GSP2 substrate, 2 μM ATP, 7.4 KBq/well [γ-33P]-ATP and 15 nM HsGSK3β in the TbGSK3 kinase assay buffer (25 mM Tris-HCl, pH 7.5, 10 mM MgCl2, 5 mM DTT, 0.02% CHAPS, 2 U/mL heparin). For HsCDK2/cyclin A assay, the reaction mixtures contained 1 mM CDK5 biotinylated peptide substrate (Biotin-C6-PKTPKKAKKL), 1 μM ATP, 7.4 KBq/well [γ-^33P]-ATP and 2 nM HsCDK2/cyclin A in the kinase assay buffer (50 mM Tris-HCl, pH 7.5, 10 mM MgCl2, 2 mM DTT, 100 mM NaCl, 0.2 mM EGTA, 0.02% (v/v) Brij35).
This implies that a difference of >0.3 in pIC50 can be considered statistically significant for this assay.

MRC5 cells = assay: MRC5 proliferation assay (resazurin); format: cell-based, human; settings: T. b. brucei versus MRC5 EC50
Experimental: (§2) Measurement of inhibition of the proliferation of MRC5 (human lung fibroblast) cells and T. b. brucei bloodstream stage cells was performed using a modification of the cell viability assay previously described.[33] Compounds (50 μM to 0.5 nM) were incubated with 2 × 10^3 cells/well in 0.2 mL of the appropriate culture medium (MEM with 10% fetal bovine serum for MRC5 cells) in clear 96-well plates. Plates were incubated at 37 °C in the presence of 5% CO2 for 69 h. Resazurin was then added to a final concentration of 50 μM, and plates were incubated as above for a further 4 h before being read on a BioTek flx800 fluorescent plate reader.

HsCDK2/cyclin A = HsCDK2/cyclin A (Homo sapiens, UniProt P24941); assay: Radiometric Flashplate potency assay, HsCDK2/cyclin A; format: biochemical; settings: for ratio HsCDK2/TbGSK3: ratio of IC50 values; for IC50: average of two or more experiments, 1 μM ATP
Experimental: as §1
For the HsCDK2 assay, the analysis was performed using two different standards (GW8510 and staurosporine) tested respectively five times in a single run and 19 times in 2 independent runs. This implies that a difference of >0.3 in pIC50 can be considered statistically significant for this assay.

TbGSK3 short = biological target: T1, TbGSK3 short (Trypanosoma brucei brucei, UniProt Q388M1); assay: Radiometric 96-well Flashplate potency assay, TbGSK3; format: biochemical; settings: more potent than the unsubstituted phenyl compound 4f
T1 sequence (Q388M1 1-352): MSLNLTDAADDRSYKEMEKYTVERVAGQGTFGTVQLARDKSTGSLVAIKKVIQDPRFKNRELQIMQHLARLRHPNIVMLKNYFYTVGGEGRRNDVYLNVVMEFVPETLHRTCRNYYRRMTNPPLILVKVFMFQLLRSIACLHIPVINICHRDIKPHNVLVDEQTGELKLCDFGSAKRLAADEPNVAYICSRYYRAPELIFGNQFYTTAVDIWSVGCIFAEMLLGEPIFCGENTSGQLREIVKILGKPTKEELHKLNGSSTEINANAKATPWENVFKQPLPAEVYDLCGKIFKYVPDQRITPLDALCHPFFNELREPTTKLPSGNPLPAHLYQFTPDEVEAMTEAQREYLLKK
Experimental: as §1
The statistical significance of the compound potency (IC50) was based on the performance of standard molecules which have been tested to a high replication. In the case of TbGSK3 short assay, the standard compound GW8510 was tested 93 times across 9 independent runs. […] The minimum significant ratio (MSR) of 0.4 was evaluated considering the following formula: [drawing 1] where SD is the standard deviation and N the number of replicate values routinely used for the assay (2 in our case).[31] This implies that a difference of >0.4 in pIC50 can be considered statistically significant for this assay.

[1] = system: bloodstream form T. b. brucei; assay: Trypanosome proliferation assay (resazurin); format: cell-based; settings: Trypanosoma brucei, 72 h, concentration required to inhibit growth in culture by 50% over 72 h
Experimental: as §2

HsGSK3β, sequence (P49841 whole entry): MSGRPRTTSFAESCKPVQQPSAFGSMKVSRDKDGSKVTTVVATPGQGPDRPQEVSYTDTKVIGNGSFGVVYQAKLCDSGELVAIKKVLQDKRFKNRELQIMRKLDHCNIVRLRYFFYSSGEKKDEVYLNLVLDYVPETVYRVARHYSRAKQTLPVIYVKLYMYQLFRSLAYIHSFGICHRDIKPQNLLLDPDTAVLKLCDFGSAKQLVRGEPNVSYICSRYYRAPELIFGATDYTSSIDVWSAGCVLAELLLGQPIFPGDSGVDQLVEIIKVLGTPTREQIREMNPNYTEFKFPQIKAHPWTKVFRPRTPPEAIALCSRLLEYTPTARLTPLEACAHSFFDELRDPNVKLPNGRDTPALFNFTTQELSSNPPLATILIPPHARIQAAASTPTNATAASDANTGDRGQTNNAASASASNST

| SMILES | selectivity over MRC5 cells (MRC5 cells) [fold] | ratio HsCDK2/TbGSK3 (HsCDK2/cyclin A) | further results |
| --- | --- | --- | --- |
| CCCCCNC(=O)c1n[nH]cc1NC(=O)c1c(OC)cccc1OC [Compound 9s, 4-(2,6-Dimethoxybenzamido)-N-pentyl-1H-pyrazole-3-carboxamide] | > 7 |  | ratio HsGSK3β/TbGSK3 (HsGSK3β): 100 |
| CO[C@H]1CC[C@H](NC(=O)c2n[nH]cc2NC(=O)c2c(C)nc3ccccn23)CC1 [Compound 4x, N-(3-((4-Methoxycyclohexyl)carbamoyl)-1H-pyrazol-4-yl)-2-methylimidazo[1,2-a]pyridine-3-carboxamide] | 12 |  |  |
| CO[C@H]1CC[C@H](NC(=O)c2n[nH]cc2NC(=O)c2ccccc2F)CC1 [Compound 4g, 4-(2-Fluorobenzamido)-N-(4-methoxycyclohexyl)-1H-pyrazole-3-carboxamide] |  | <0.7 |  |
| COc1cccc(OC)c1C(=O)Nc1c[nH]nc1C(=O)NC1CCCCCC1 [Compound 9d, N-Cycloheptyl-4-(2,6-dimethoxybenzamido)-1H-pyrazole-3-carboxamide] | > 7 |  |  |
| CO[C@H]1CC[C@H](NC(=O)c2n[nH]cc2NC(=O)c2ccccc2Nc2cccc(C)c2C)CC1 [Compound 4l, 4-(2-((2,3-Dimethylphenyl)amino)benzamido)-N-(4-methoxycyclohexyl)-1H-pyrazole-3-carboxamide] |  | >150 | IC50 (HsCDK2/cyclin A): > 10 µM |
| COc1cccc(OC)c1C(=O)Nc1c[nH]nc1C(=O)NC1CCCCC1 [Compound 9c, N-Cyclohexyl-4-(2,6-dimethoxybenzamido)-1H-pyrazole-3-carboxamide] | > 7 |  |  |
| COc1cccc(OC)c1C(=O)Nc1c[nH]nc1C(=O)NCCCOC(C)C [Compound 9t, 4-(2,6-Dimethoxybenzamido)-N-(3-isopropoxypropyl)-1H-pyrazole-3-carboxamide] | > 7 |  |  |
| COc1cccc(OC)c1C(=O)Nc1c[nH]nc1C(=O)NC1CC1 [Compound 9a, N-Cyclopropyl-4-(2,6-dimethoxybenzamido)-1H-pyrazole-3-carboxamide] |  | >830 |  |
| CO[C@H]1CC[C@H](NC(=O)c2n[nH]cc2NC(=O)c2ccccc2Nc2ccccc2)CC1 [Compound 4k, N-(4-Methoxycyclohexyl)-4-(2-(phenylamino)benzamido)-1H-pyrazole-3-carboxamide] |  | >910 | IC50 (HsCDK2/cyclin A): > 10 µM |
| COc1cc(OC)c(C(=O)Nc2c[nH]nc2C(=O)N[C@H]2CC[C@H](OC)CC2)c(OC)c1 [Compound 4n, N-(4-Methoxycyclohexyl)-4-(2,4,6-trimethoxybenzamido)-1H-pyrazole-3-carboxamide] | > 9 |  | TbGSK3 potency relative to 4f (TbGSK3 short): approximately 10 fold; selectivity over HsCDK2 (HsCDK2/cyclin A; TbGSK3 versus HsCDK2, running text): > 1000 fold; selectivity over HsGSK3 (HsGSK3β; TbGSK3 versus HsGSK3, running text): > 10 fold |
| CO[C@H]1CC[C@H](NC(=O)c2n[nH]cc2NC(=O)c2ccc(N3CCCC3)cc2)CC1 [Compound 4s, N-(4-Methoxycyclohexyl)-4-(4-(pyrrolidin-1-yl)benzamido)-1H-pyrazole-3-carboxamide] | > 19 |  | ratio HsGSK3β/TbGSK3 (HsGSK3β): <0.26 |
| COc1ccccc1C(=O)Nc1c[nH]nc1C(=O)N[C@H]1CC[C@H](OC)CC1 [Compound 4j, 4-(2-Methoxybenzamido)-N-(4-methoxycyclohexyl)-1H-pyrazole-3-carboxamide] |  |  | TbGSK3 potency relative to 4f (TbGSK3 short): approximately 10 fold; EC50 [1]: < 1 µM; ratio HsGSK3β/TbGSK3 (HsGSK3β): <3.3 |

— PMC4175002, “The Design and Synthesis of Potent and Selective Inhibitors of Trypanosoma brucei Glycogen Synthase Kinase 3 for the Treatment of Human African Trypanosomiasis” (Journal of Medicinal Chemistry, 2014)
